In paper PMC6917776, “Discovery of a chemical probe for PRDM9” (Nature Communications, 2019) one finds activity and Activity % data, which are given here for one compound.

The target of the assay is T1, PRDM9 (amino acids: 195–415) (Homo sapiens, UniProt Q9NQV7).
T1 construct: PRDM9 (amino acids: 195–415)
T1 sequence (Q9NQV7 195-415): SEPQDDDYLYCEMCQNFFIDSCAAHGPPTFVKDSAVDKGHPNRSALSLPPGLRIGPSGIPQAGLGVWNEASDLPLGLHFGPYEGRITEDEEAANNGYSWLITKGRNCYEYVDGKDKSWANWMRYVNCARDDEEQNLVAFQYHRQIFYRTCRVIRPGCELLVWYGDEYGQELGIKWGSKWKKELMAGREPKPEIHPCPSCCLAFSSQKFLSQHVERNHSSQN
Description: PRDM9 methyltransferase activity assay (3H-SAM scintillation proximity assay). In kind it is biochemical. As to conditions: PRDM9, Exp1, Exp2. The protocol:
Methyltransferase activity assays for PRDM9 (amino acids: 195–415) were performed by monitoring the incorporation of tritium-labeled methyl group from ^3H-SAM to H3 (1–25) peptide using scintillation proximity assay (SPA). The enzymatic reactions were performed at 23 °C with 30 min incubation in 20 mM Tris-HCl (pH 7.5), 5 mM DTT, 0.01% Triton X-100 and 1% DMSO containing 71 μM of SAM (5 μM of ^3H-SAM), 4 μM of biotinylated H3 (1–25) peptide and 5 nM of PRDM9. For PRDM7, reactions were performed at 23 °C with 90 min incubation in 20 mM BTP pH 9.0, 5 mM DTT, 0.01% Triton X-100 and 1% DMSO containing 900 μM of SAM (5 μM of ^3H-SAM), 4 μM of biotinylated H3 (1–25) peptide and 100 nM of enzyme. […] To stop the reactions, 10 μL of 7.5 M guanidine hydrochloride was added to 10 μL of reaction mixture, followed by 60 μL of buffer (20 mM Tris, pH 8.0), mixed, and transferred to a 384-well streptavidin coated Flash-plate. After mixing, the mixtures in Flash-plate were incubated for 2 h, and the CPM counts were measured using TopCount plate reader. All enzymatic reactions were performed in triplicate, and IC50 values were determined by fitting the data to Four Parameter Logistic equation using the GraphPad Prism software.
A general note: SPA uses beads or plates that emit light when radiolabelled molecules are held near them.

Regarding `COc1cc(OC)cc(-c2noc(N3CCN(C)C4(CCN(c5ccccc5)CC4)C3)n2)c1` [MRK-740 -NC], the activity at 1 µM (1µM compound) was determined as 97%. The same compound displayed an Activity % (1µM compound, 1 µM) of 90% and an Activity % (10µM compound, 10 µM) of 93%. Also, under “10µM compound”, the activity at 10 µM came to 96%.
